In patent US20130310256A1, “HERBICIDAL COMPOSITIONS COMPRISING 4-AMINO-3-CHLORO-5-FLUORO-6-(4-CHLORO-2-FLUORO-3-METHOXYPHENYL) PYRIDINE-2-CARBOXYLIC ACID OR A DERIVATIVE THEREOF AND VLCFA AND LIPID SYNTHESIS INHIBITING HERBICIDES” (DOW AGROSCIENCES LLC, priority 2008, published 2013):

Legend:
LEFCH = experiment: Example I: postemergence foliar-applied weed control, greenhouse; assay type: in vivo, Leptochloa chinensis (L.) Nees (Chinese sprangletop); conditions: foliar
Excerpt: (§1) Seeds or nutlets of the desired test plant species were planted in a soil matrix prepared by mixing a loam or sandy loam soil (e.g., 28.6 percent silt, 18.8 percent clay, and 52.6 percent sand, with a pH of about 5.8 and an organic matter content of about 1.8 percent) and calcareous grit in an 80 to 20 ratio. The soil matrix was contained in plastic pots with a volume of 1 quart and a surface area of 83.6 square centimeters (cm^2). When required to ensure good germination and healthy plants, a fungicide treatment and/or other chemical or physical treatment was applied. The plants were grown for 8-22 days in a greenhouse with an approximate 14 hr photoperiod which was maintained at about 29° C. during the day and 26° C. during the night. Nutrients (Peters Excel® 15-5-15 5-Ca 2-Mg and iron chelate) were applied in the irrigation solution as needed and water was added on a regular basis. Supplemental lighting was provided with overhead metal halide 1000-Watt lamps as necessary. The plants were employed for testing when they reached the first through fourth true leaf stage.
(§2) Treatments consisted of the acid or esters of 4-amino-3-chloro-5-fluoro-6-(4-chloro-2-fluoro-3-methoxy-phenyl)pyridine-2-carboxylic acid (Compound A), each formulated as an SC (suspension concentrate), and various herbicidal components alone and in combination. Forms of compound A were applied on an acid equivalent basis.
(§3) Other herbicidal components were applied on an active ingredient basis and included very long chain fatty acid (VLCFA) synthesis-inhibiting and fatty acid/lipid synthesis-inhibiting herbicides acetochlor (technical grade material), acetochlor+dichlormid formulated as Topnotch®, pretilachlor (technical grade material), butachlor formulated as Butachlor EC, fentrazamide formulated as Fentrazamide EC, thiobencarb formulated as Bolero® 8EC, cafenstrole formulated as Himeadow® WP or Lapost® Flowable, benfuresate formulated as Full Shot®, dimethenamid-P formulated as Outlook®, indanofan (technical grade material), flufenacet formulated as Define® DF, mefenacet (technical grade material), S-metolachlor formulated as Dual® II Magnum, pethoxamid formulated as Successor® 600, and pyroxasulfone (technical grade material).
(§4) Treatment requirements were calculated based upon the rates being tested, the concentration of active ingredient or acid equivalent in the formulation, and a 12 mL application volume at a rate of 187 L/ha.
(§5) For treatments comprised of formulated compounds, measured amounts of compounds were placed individually in 25 mL glass vials and diluted in a volume of 1.25% (v/v) Agri-Dex® crop oil concentrated to obtain 12× stock solutions. […] Application solutions were prepared by adding an appropriate amount of each stock solution (e.g., 1 mL) and diluted to the appropriate final concentrations with the addition of 10 mL of an aqueous mixture of 1.25% (v/v) crop oil concentrate so that the final spray solutions contained 1.25+/−0.05% (v/v) crop oil concentrate.
(§6) For treatments comprised of technical compounds, weighed amounts can be placed individually in 25 mL glass vials and dissolved in a volume of 97:3 v/v acetone/DMSO to obtain 12× stock solutions. […] Application solutions can be prepared by adding an appropriate amount of each stock solution (e.g., 1 mL) and diluted to the appropriate final concentrations with the addition of 10 mL of an aqueous mixture of 1.5% (v/v) crop oil concentrate so that the final spray solutions contain 1.25% (v/v) crop oil concentrate. When technical materials are used, the concentrated stock solutions can be added to the spray solutions so that the final acetone and DMSO concentrations of the application solutions are […], respectively. […]

CYPIR = experiment: as above; assay type: in vivo, Cyperus iria L. (rice flatsedge); conditions: foliar
Excerpt: as §1, §2, §3, §4, §5, §6

CYPES = experiment: as above; assay type: in vivo, Cyperus esculentus L. (yellow nutsedge)
BRAPP = experiment: Example I: postemergence foliar-applied weed control, direct seeded rice weeds, greenhouse; assay type: in vivo; conditions: foliar
Excerpt: as §1, §2, §3, §4, §5, §6

CHEAL = experiment: Example III: post-emergence foliar-applied weed control in cereal crops, greenhouse; assay type: in vivo, Chenopodium album L.; conditions: 21 DAA
Experimental: (§7) Seeds of the desired test plant species were planted in Sun Gro MetroMix® 306 planting mixture, which typically has a pH of 6.0 to 6.8 and an organic matter content of about 30 percent, in plastic pots with a surface area of 103.2 square centimeters (cm^2). When required to ensure good germination and healthy plants, a fungicide treatment and/or other chemical or physical treatment was applied. The plants were grown for 7-36 days in a greenhouse with an approximate 14 hour photoperiod which was maintained at about 18° C. during the day and 17° C. during the night. Nutrients and water were added on a regular basis and supplemental lighting was provided with overhead metal halide 1000-Watt lamps as necessary. The plants were employed for testing when they reached the second or third true leaf stage.
(§8) Treatments consisted of the benzyl ester of 4-amino-3-chloro-5-fluoro-6-(4-chloro-2-fluoro-3-methoxy-phenyl)pyridine-2-carboxylic acid (Compound A), formulated as an SC (suspension concentrate), and a second cereal herbicide alone and in combination.
(§9) Measured aliquots of the benzyl ester of 4-amino-3-chloro-5-fluoro-6-(4-chloro-2-fluoro-3-methoxy-phenyl)pyridine-2-carboxylic acid (Compound A) were placed in 25 milliliter (mL) glass vials and diluted in a volume of 1.25% (v/v) Agri-dex crop oil concentrated to obtain stock solutions. Compound requirements are based upon a 12 mL application volume at a rate of 187 liters per hectare (L/ha). Spray solutions of the second cereal herbicide and experimental compound mixtures were prepared by adding the stock solutions to the appropriate amount of dilution solution to form 12 mL spray solution with active ingredients in two- and three-way combinations. Formulated compounds were applied to the plant material with an overhead Mandel track sprayer equipped with an 8002E nozzle calibrated to deliver 187 L/ha over an application area of 0.503 square meters (m^2) at a spray height of 18 inches (46 cm) above average plant canopy. Control plants were sprayed in the same manner with the solvent blank.
(§10) The treated plants and control plants were placed in a greenhouse as described above and watered by sub-irrigation to prevent wash-off of the test compounds. After 20-22 days, the condition of the test plants as compared with that of the control plants was determined visually and scored on a scale of 0 to 100 percent where 0 corresponds to no injury and 100 corresponds to complete kill.
(§11) Colby's equation was used to determine the herbicidal effects expected from the mixtures (Colby, S. R. 1967. Calculation of the synergistic and antagonistic response of herbicide combinations. Weeds 15:20-22.).

CIRAR = experiment: as above; assay type: in vivo, Cirsium arvense (L.) Scop.; conditions: 21 DAA
Experimental: as §7, §8, §9, §10, §11

KCHSC = experiment: as above; assay type: in vivo, Kochia scoparia (L.) Schrad.; conditions: 21 DAA
Experimental: as §7, §8, §9, §10, §11

PAPRH = experiment: as above; assay type: in vivo, Papaver rhoeas L.; conditions: 21 DAA
Experimental: as §7, §8, §9, §10, §11

SASKR = experiment: as above; assay type: in vivo, Salsola tragus L.; conditions: 21 DAA
Experimental: as §7, §8, §9, §10, §11

SINAR = experiment: as above; assay type: in vivo, Sinapis arvensis L.; conditions: 21 DAA
Experimental: as §7, §8, §9, §10, §11

STEME = experiment: as above; assay type: in vivo, Stellaria media (L.) Vill.; conditions: 21 DAA
Experimental: as §7, §8, §9, §10, §11

ECHCG = experiment: Example I: postemergence foliar-applied weed control, greenhouse; assay type: in vivo, Echinochloa crus-galli (L.) Beauv. (barnyardgrass); conditions: foliar
Excerpt: as §1, §2, §3, §4, §5, §6

IPOHE = experiment: Example IV: pre-emergence soil-applied weed control, greenhouse; assay type: in vivo, Ipomoea hederacea Jacq. (ivyleaf morningglory); conditions: 28 DAA
Excerpt: Seeds or nutlets of the desired test plant species were planted in a soil matrix prepared by mixing a loam soil (32 percent silt, 23 percent clay, and 45 percent sand, with a pH of about 6.5 and an organic matter content of about 1.9 percent) and calcareous grit in an 80 to 20 ratio. The soil matrix was contained in plastic pots with a volume of 1 quart and a surface area of 83.6 square centimeters (cm^2).
as §2, with “benzyl ester” for “acid or esters”, “(compound A)” for “(Compound A), each”, “concentrate)” for “concentrate),”
Other herbicidal components were applied on an active ingredient basis and included very long chain fatty acid (VLCFA) synthesis-inhibiting and fatty acid/lipid synthesis-inhibiting herbicides alachlor (technical grade material), dimethenamid-P formulated as Outlook®, and S-metolachlor formulated as Dual® II Magnum.
as §4
as §5, with “oil concentrate (COC)” for “oil concentrated”, “(v/v) COC” for “(v/v) crop oil concentrate”, “contained 1.25%” for “contained 1.25+/−0.05%”, “(v/v) COC.” for “(v/v) crop oil concentrate.”
For treatments comprised of technical compounds, weighed amounts can be placed individually in 25 mL glass vials and dissolved in a volume of 97:3 (v/v) acetone/DMSO to obtain 12× stock solutions. […] Application solutions can be prepared by adding an appropriate amount of each stock solution (e.g., 1 mL) and diluted to the appropriate final concentrations with the addition of 10 mL of an aqueous mixture of 1.5% (v/v) COC so that the final spray solutions contain 1.25% (v/v) COC. When technical materials are used, the concentrated stock solutions can be added to the spray solutions so that the final acetone and DMSO concentrations of the application solutions are 16.2% and 0.5%, respectively.
For treatments comprised of formulated and technical compounds, weighed amounts of the technical materials were placed individually in 25 mL glass vials and dissolved in a volume of 97:3 (v/v) acetone/DMSO to obtain 12× stock solutions, and measured amounts of the formulated compounds were placed individually in 25 mL glass vials and diluted in a volume of 1.5% (v/v) COC or water to obtain 12× stock solutions. […] Application solutions were prepared by adding an appropriate amount of each stock solution (e.g., 1 mL) and diluted to the appropriate final concentrations with the addition of an appropriate amount of an aqueous mixture of 1.5% (v/v) COC so that the final spray solutions contained 1.25% (v/v) COC. As required, additional water and/or 97:3 (v/v) acetone/DMSO was added to individual application solutions so that the final acetone and DMSO concentrations of the application solutions being compared were 8.1% and 0.25%, respectively.
All stock solutions and applications solutions were visually inspected for compound compatibility prior to application. Spray solutions were applied to the soil with an overhead Mandel track sprayer equipped with a 8002E nozzles calibrated to deliver 187 L/ha over an application area of 0.503 m^2 at a spray height of 18 inches (46 cm) above average pot height. Control pots were sprayed in the same manner with the solvent blank.
The treated and control pots were placed in a greenhouse and top watered as needed. […]

CCOCCN(C(=O)CCl)C(=C(C)C)c1ccccc1 [Pethoxamid, 2-Chloro-N-(2-ethoxyethyl)-N-(2-methyl-1-phenyl-1-propen-1-yl)acetamide]
Visual Weed Control (%) - 21 DAA LEFCH Obs (LEFCH; 305 gai/ha): 10% | Visual Weed Control (%) - 21 DAA LEFCH Obs (LEFCH; 610 gai/ha): 10% | Visual Weed Control (%) - 21 DAA CYPIR Obs (CYPIR; 305 gai/ha): 40% | Visual Weed Control (%) - 21 DAA CYPIR Obs (CYPIR; 610 gai/ha): 80% | Visual Weed Control (%) - 21 DAA CYPIR Obs (CYPIR; 1220 gai/ha): 85% | Visual Weed Control (%) - 21 DAA CYPES Obs (CYPES; 305 gai/ha): 0% | Visual Weed Control (%) - 21 DAA CYPES Obs (CYPES; 610 gai/ha): 25% | Visual Weed Control (%) - 21 DAA CYPES Obs (CYPES; 1220 gai/ha): 65%

CC(C)N(C(=O)COc1nnc(C(F)(F)F)s1)c1ccc(F)cc1 [Flufenacet, N-(4-fluorophenyl)-N-(1-methylethyl)-2-[[5-(trifluoromethyl)-1,3,4-thiadiazol-2-yl]oxy]acetamide]
Visual Weed Control (%) - 22 DAA BRAPP Obs (BRAPP; 187.5 gai/ha): 10% | Visual Weed Control (%) - 22 DAA BRAPP Obs (BRAPP; 375 gai/ha): 20% | Visual Weed Control (%) - 22 DAA BRAPP Obs (BRAPP; 750 gai/ha): 40% | Visual Weed Control CHEAL Obs (CHEAL; 60 gai/ha): 0% | Visual Weed Control CHEAL Obs (CHEAL; 120 gai/ha): 0% | Visual Weed Control CIRAR Obs (CIRAR; 60 gai/ha): 0% | Visual Weed Control CIRAR Obs (CIRAR; 120 gai/ha): 0% | Visual Weed Control CIRAR Obs (CIRAR; 240 gai/ha): 17% | Visual Weed Control KCHSC Obs (KCHSC; 60 gai/ha): 5% | Visual Weed Control KCHSC Obs (KCHSC; 120 gai/ha): 5% | Visual Weed Control KCHSC Obs (KCHSC; 240 gai/ha): 17% | Visual Weed Control PAPRH Obs (PAPRH; 60 gai/ha): 0% | Visual Weed Control PAPRH Obs (PAPRH; 120 gai/ha): 5% | Visual Weed Control PAPRH Obs (PAPRH; 240 gai/ha): 7% | Visual Weed Control SASKR Obs (SASKR; 60 gai/ha): 5% | Visual Weed Control SASKR Obs (SASKR; 120 gai/ha): 5% | Visual Weed Control SASKR Obs (SASKR; 240 gai/ha): 13% | Visual Weed Control SINAR Obs (SINAR; 60 gai/ha): 5% | Visual Weed Control SINAR Obs (SINAR; 120 gai/ha): 8% | Visual Weed Control STEME Obs (STEME; 60 gai/ha): 0% | Visual Weed Control STEME Obs (STEME; 120 gai/ha): 5% | Visual Weed Control STEME Obs (STEME; 240 gai/ha): 42%

CCc1cccc(C)c1N(C(=O)CCl)C(C)COC (centres unmarked) [S-Metolachlor]
Visual Weed Control (%) - 20 DAA ECHCG Obs (ECHCG; 387.5 gai/ha): 20% | Visual Weed Control (%) - 20 DAA ECHCG Obs (ECHCG; 775 gai/ha): 55% | Visual Weed Control IPOHE Obs (IPOHE; 387.5 gai/ha): 25% | Visual Weed Control IPOHE Obs (IPOHE; 775 gai/ha): 0% | Visual Weed Control IPOHE Obs (IPOHE; 1550 gai/ha): 33%
